Laboratory results taken from paper PMC4759042, “The D‐amino acid transport by the invertebrate SLC6 transporters KAAT1 and CAATCH1 from Manduca sexta” (Physiological Reports, 2016).

What was measured:
[1] = molecular target: T1, CAATCH1 (msCAATCH1) (Manduca sexta, UniProt Q9U5A9); assay: two-electrode voltage clamp in oocytes, transport current; type: cell-based; conditions: NaCl 98 mmol/L, pH 7.6, -60 mV
T1 construct: full-length transporter from cRNA in Xenopus laevis oocytes
T1 sequence (Q9U5A9 1-633): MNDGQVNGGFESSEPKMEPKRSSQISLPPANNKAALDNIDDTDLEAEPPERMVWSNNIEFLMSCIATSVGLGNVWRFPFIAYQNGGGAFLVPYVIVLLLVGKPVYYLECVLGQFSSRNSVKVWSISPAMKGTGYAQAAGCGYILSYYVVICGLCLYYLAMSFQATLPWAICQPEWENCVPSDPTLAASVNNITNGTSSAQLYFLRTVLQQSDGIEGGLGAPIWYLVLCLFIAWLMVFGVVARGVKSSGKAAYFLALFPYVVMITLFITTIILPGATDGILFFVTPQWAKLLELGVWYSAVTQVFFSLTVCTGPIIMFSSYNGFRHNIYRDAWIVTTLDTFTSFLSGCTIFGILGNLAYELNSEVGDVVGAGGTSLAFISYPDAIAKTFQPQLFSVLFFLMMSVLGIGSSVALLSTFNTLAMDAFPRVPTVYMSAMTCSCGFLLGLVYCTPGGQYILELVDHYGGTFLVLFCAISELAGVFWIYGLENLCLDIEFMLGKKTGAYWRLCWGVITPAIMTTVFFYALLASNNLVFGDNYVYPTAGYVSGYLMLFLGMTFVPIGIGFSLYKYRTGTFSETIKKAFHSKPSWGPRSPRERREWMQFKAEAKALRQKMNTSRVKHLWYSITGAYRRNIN

[2] = molecular target: T2, KAAT1 (msKAAT1) (Manduca sexta, UniProt O76188); assay: as above; type: cell-based; conditions: NaCl 98 mmol/L, pH 7.6, -60 mV; main transport site, up to 300 μmol/L
T2 construct: full-length transporter from cRNA in Xenopus laevis oocytes
T2 sequence (O76188 1-634): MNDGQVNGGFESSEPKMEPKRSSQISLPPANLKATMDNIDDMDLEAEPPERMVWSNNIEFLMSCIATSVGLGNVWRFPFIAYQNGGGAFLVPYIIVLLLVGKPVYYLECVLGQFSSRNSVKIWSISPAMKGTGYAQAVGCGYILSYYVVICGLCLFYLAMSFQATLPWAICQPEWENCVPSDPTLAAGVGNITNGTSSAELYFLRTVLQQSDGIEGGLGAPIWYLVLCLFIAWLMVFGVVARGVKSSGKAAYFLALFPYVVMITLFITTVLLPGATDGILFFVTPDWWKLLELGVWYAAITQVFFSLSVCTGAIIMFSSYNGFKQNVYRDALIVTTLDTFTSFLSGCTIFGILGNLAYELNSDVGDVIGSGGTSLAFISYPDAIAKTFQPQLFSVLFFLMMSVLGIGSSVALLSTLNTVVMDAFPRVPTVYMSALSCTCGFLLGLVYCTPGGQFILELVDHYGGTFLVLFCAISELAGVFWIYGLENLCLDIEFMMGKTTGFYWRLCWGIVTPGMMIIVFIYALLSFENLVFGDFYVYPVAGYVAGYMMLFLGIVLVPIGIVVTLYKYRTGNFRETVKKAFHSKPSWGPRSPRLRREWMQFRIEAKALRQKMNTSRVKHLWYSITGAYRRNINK

[3] = molecular target: T1, CAATCH1 (msCAATCH1); assay: two-electrode voltage clamp in oocytes, block of leak current; type: cell-based; conditions: NaCl 98 mmol/L, pH 7.6, -60 mV; blocker, not transported
[4] = substrate: CC(C)C[C@H](N)C(=O)O; assay: two-electrode voltage clamp in oocytes, transport current; type: cell-based, Manduca sexta; conditions: NaCl 98 mmol/L, pH 7.6, -60 mV, 20-25 °C

## CC(C)C[C@@H](N)C(=O)O [D‐leucine]
[1]; 30-1000 μmol/L
  two-electrode voltage clamp in oocytes, transport current: The amplitude of the response to D‐leucine increases with the substrate concentration
[2]
  two-electrode voltage clamp in oocytes, transport current: increasing concentrations of D‐leucine to the oocyte caused progressively larger transport currents

## N[C@H](CO)C(=O)O [D‐serine]
[1]
  two-electrode voltage clamp in oocytes, transport current: the D‐enantiomer gives rise to a large current

## CC(C)C[C@H](N)C(=O)O [L‐leucine]
[3]
  two-electrode voltage clamp in oocytes, block of leak current: L‐leucine produces an apparent outward current, actually representing a block of the leak current

## N[C@@H](CO)C(=O)O [L‐serine]
[3]
  two-electrode voltage clamp in oocytes, block of leak current: has a blocking effect similar to that of L‐leucine

B1: KAAT1 (msKAAT1) (Manduca sexta) (protein)
chain: MNDGQVNGGFESSEPKMEPKRSSQISLPPANLKATMDNIDDMDLEAEPPERMVWSNNIEFLMSCIATSVGLGNVWRFPFIAYQNGGGAFLVPYIIVLLLVGKPVYYLECVLGQFSSRNSVKIWSISPAMKGTGYAQAVGCGYILSYYVVICGLCLFYLAMSFQATLPWAICQPEWENCVPSDPTLAAGVGNITNGTSSAELYFLRTVLQQSDGIEGGLGAPIWYLVLCLFIAWLMVFGVVARGVKSSGKAAYFLALFPYVVMITLFITTVLLPGATDGILFFVTPDWWKLLELGVWYAAITQVFFSLSVCTGAIIMFSSYNGFKQNVYRDALIVTTLDTFTSFLSGCTIFGILGNLAYELNSDVGDVIGSGGTSLAFISYPDAIAKTFQPQLFSVLFFLMMSVLGIGSSVALLSTLNTVVMDAFPRVPTVYMSALSCTCGFLLGLVYCTPGGQFILELVDHYGGTFLVLFCAISELAGVFWIYGLENLCLDIEFMMGKTTGFYWRLCWGIVTPGMMIIVFIYALLSFENLVFGDFYVYPVAGYVAGYMMLFLGIVLVPIGIVVTLYKYRTGNFRETVKKAFHSKPSWGPRSPRLRREWMQFRIEAKALRQKMNTSRVKHLWYSITGAYRRNINK
notes: full-length transporter from cRNA in Xenopus laevis oocytes
[4]
  K0.5: 10 µmol/L
